Test results: PMC10257182, “Discovery of senolytics using machine learning” (Nature Communications, 2023)
Read-outs that look alike come from different tables or passages of the source.

Test system: non-senescent control IMR90 ER:RAS cells
Experiment: Nuclei count (Hoechst, high content imaging) senolytic assay, OIS model, non-senescent control cells
Type: cell-based, human
Settings: Homo sapiens; for viability at 10 µM: log (dose) [M] -5, 72 h; for viability at 0.02188 µM: log (dose) [M] -7.66, 72 h
Text: To test for senolytic activity, we compared the effect of each compound on the total cell number (automated high content image-based analysis of total number of nuclei per well) in non-senescent and senescent IMR90 ER:RAS cultures treated with the top hits from the computational screen (Figs. 2e and 3a–d and Supplementary Fig. 4a–c). The drop in cell number compared to untreated controls is indicated by the nuclei count and reflects cell death[13],[15]. As positive control, we employed ouabain, a cardiac glycoside with well characterised senolytic activity.
We performed experimental validation of the compounds with z-score > 8 (Fig. 2e). […] We employed two cellular models of senescence: one of OIS and a second one of TIS. For the OIS case, we utilised IMR90 ER:RAS cells with 4-OHT at 100 nM. […] For the TIS model, we used A549 cells with etoposide at 100 μM. The exposure of the cells to etoposide lasted 48 h, after which period the cells were cultivated for a further three days with normal media.
IMR90 (CCL-186) human foetal lung fibroblasts and A549 (CCL-185) human lung adenocarcinoma cells were obtained from the American Type Culture Collection (ATCC, Manassas, VA). The cell lines were confirmed to be mycoplasma negative (Lonza MycoAlert, cat #LT07-118). IMR90 ER:RAS is a derivative of IMR90 cells expressing a switchable version of oncogenic H-Ras[84]. IMR90 ER:RAS and A549 cells were maintained in Dulbecco’s Modified Eagle Medium (DMEM, ThermoFisher) supplemented with foetal bovine serum (10%), L-glutamine (2 mM, ThermoFisher), and antibiotic-antimycotic solution (1%, ThermoFisher) and incubated under standard tissue culture conditions (37 °C and 5% CO2). For induction of the senescent phenotype, IMR90-ER:RAS cells were cultured in hydroxytamoxifen (4-OHT) (Sigma) added media at 100 nM final concentration. IMR90 were kept in culture for over 27 passages for replicative senescence. Cells were tested for mycoplasma on a regular basis.
Cells were seeded (50 μL per well) into 384-well plates (IMR90 ER:RAS cells in Nunc Optical Bottom Polybase Microplates [#142761, Thermo Scientific, Rochester, NY] and A549 cells in CELLSTAR Cell Culture Microplates [#781091, Greiner Bio-One, Kremsmünster, Austria]). Cells were incubated under standard tissue culture conditions for 24 h before the addition of compounds. Passage 14 IMR90 ER:RAS cells were seeded at 1300 cells per well in the control condition, and at 1600 cells per well in the senescent case. Passage 34 A549 cells were seeded at 7000 cells per well in the control condition, and at 10,000 cells per well in the senescent case.
Dose response plates were prepared with a DMSO control and a 10-point […] concentration range, and added to the compounds using a D300e digital dispenser (Tecan Trading AG, Switzerland) at a final concentration of between 10 μM and 10 nM. Every screened condition was carried out in triplicate. After 72 h of incubation with exposure to the compounds, cells were fixed by the addition of an equal volume of formaldehyde (8%, 50 μL; #BP531-500, Fisher Bioreagents, Fisher Scientific, Loughborough, Leicestershire) to the existing media, incubated at room temperature (30 min), and washed three times in phosphate-buffered saline (PBS). Cells were then permeabilised in Triton-X100 (0.1%, 50 μL) and incubated at room temperature (30 min) followed by three more washes with PBS.
Cells were stained with Hoechst 33342 for nuclei count (excitation/emission wavelength at 387/447 […], DAPI channel, original concentration at 10 mg/ml, final concentration at 2 μg/ml; H1399, Molecular Probes, Eugene, OR). The staining solution was prepared in bovine serum albumin solution (10%). The staining solution was added to each well (30 μL) and incubated in the dark at room temperature (30 min), followed by three washes with PBS and no final aspiration. Plates were foil sealed.

[1] = IMR-90, 72 h, Control, mean n=3 (Fig 3C), read-out: Mean % Cell Survival
[2] = IMR-90, 72 h, Control, log (dose) [M] -5.33, 72 h, mean n=3 (Fig 3C), read-out: Mean % Cell Survival
[3] = IMR-90, 72 h, Control, log (dose) [M] -5.66, 72 h, mean n=3 (Fig 3C), read-out: Mean % Cell Survival
[4] = IMR-90, 72 h, Control, log (dose) [M] -6, 72 h, mean n=3 (Fig 3C), read-out: Mean % Cell Survival
[5] = IMR-90, 72 h, Control, log (dose) [M] -6.33, 72 h, mean n=3 (Fig 3C), read-out: Mean % Cell Survival
[6] = IMR-90, 72 h, Control, log (dose) [M] -6.66, 72 h, mean n=3 (Fig 3C), read-out: Mean % Cell Survival
[7] = IMR-90, 72 h, Control, log (dose) [M] -7, 72 h, mean n=3 (Fig 3C), read-out: Mean % Cell Survival
[8] = IMR-90, 72 h, Control, log (dose) [M] -7.33, 72 h, mean n=3 (Fig 3C), read-out: Mean % Cell Survival
[9] = IMR-90, 72 h, Control, log (dose) [M] -8, 72 h, mean n=3 (Fig 3C), read-out: Mean % Cell Survival

Row | SMILES | viability at 10 µM [1] [%] | viability at 4.677 µM [2] [%] | viability at 2.188 µM [3] [%] | viability at 1 µM [4] [%] | viability at 0.4677 µM [5] [%] | viability at 0.2188 µM [6] [%] | viability at 0.1 µM [7] [%] | viability at 0.04677 µM [8] [%] | viability at 0.02188 µM [1] [%] | viability at 0.01 µM [9] [%] | also measured
1 | COc1cc(O)c2c(=O)cc(-c3ccc(OC)c(-c4c(O)cc(O)c5c(=O)cc(-c6ccc(O)cc6)oc45)c3)oc2c1 [Ginkgetin, ginkgetin] | 37.6 | 87 | 87.7 | 87.1 | 85.5 | 86.2 | 85.1 | 87.3 | 88.8 | 93 | viability at 4.677 µM (IMR-90, control, log (dose) [M] -5.33, individual replicates (Fig 3D), read-out: % Cell Survival): 83%; viability at 2.188 µM (IMR-90, control, log (dose) [M] -5.66, individual replicates (Fig 3D), read-out: % Cell Survival): 83.6%; viability at 1 µM (IMR-90, control, log (dose) [M] -6, individual replicates (Fig 3D), read-out: % Cell Survival): 78.9%; viability at 0.4677 µM (IMR-90, control, log (dose) [M] -6.33, individual replicates (Fig 3D), read-out: % Cell Survival): 82.5%; viability at 0.2188 µM (IMR-90, control, log (dose) [M] -6.66, individual replicates (Fig 3D), read-out: % Cell Survival): 81.2%; viability at 0.1 µM (IMR-90, control, log (dose) [M] -7, individual replicates (Fig 3D), read-out: % Cell Survival): 74.3%; viability at 0.01 µM (IMR-90, control, log (dose) [M] -8, individual replicates (Fig 3D), read-out: % Cell Survival): 85.3%; IC50 (IMR-90, OIS model, non-senescent IMR90 ER:RAS, nuclei count, 72 h): 26 µM
2 | Cc1cc2c(C(C)C)c(O)c(O)c(C=O)c2c(O)c1-c1c(C)cc2c(C(C)C)c(O)c(O)c(C=O)c2c1O [Gossypol, gossypol] | 86.7 | 131 | 118 | 120 | 135 | 146 | 126 | 143 | 121 | 109 | viability at 4.68 µM (IMR-90, Control, log (dose) [M] -5.33, read-out: % Cell Survival): 113%; viability at 2.19 µM (IMR-90, Control, log (dose) [M] -5.66, read-out: % Cell Survival): 99.8%; viability at 1 µM (IMR-90, Control, log (dose) [M] -6, read-out: % Cell Survival): 101%; viability at 0.219 µM (IMR-90, Control, log (dose) [M] -6.66, read-out: % Cell Survival): 94.1%; viability at 0.1 µM (IMR-90, Control, log (dose) [M] -7, read-out: % Cell Survival): 94.9%; viability at 0.04677 µM (IMR-90, Control, log (dose) [M] -7.33, read-out: % Cell Survival): 101%; viability at 0.01 µM (IMR-90, Control, log (dose) [M] -8, read-out: % Cell Survival): 104%
